Laboratory results taken from patent publication US9556121B2, “Pyridyloxyalkyl carboxamides and use thereof as endoparasiticides and nematicides” (BAYER CROPSCIENCE AG, priority 2012, dated 2017).

How the values were obtained:
Format in all cases: in vivo
Haemonchus contortus = Haemonchus contortus test (HAEMCO), larval kill; conditions: for effect (kill in %): application rate 20 ppm, after 5 days, about 40 larvae; for inhibition at 20 ppm: Haemonchus contortus, 120 h, HAEMCO, 5 dat
Procedure: Haemonchus contortus Test (HAEMCO)
(§1) Solvent: dimethyl sulphoxide
(§2) To produce a suitable preparation of active compound, 10 mg of active compound are mixed with 0.5 ml of dimethyl sulphoxide, and the concentrate is diluted with Ringer solution to the desired concentration.
Vessels containing the active compound preparation of the desired concentration are populated with about 40 larvae of the red stomach worm (Haemonchus contortus).
(§3) After 5 days, the kill in % is determined. 100% means that all of the larvae have been killed; 0% means that none of the larvae have been killed.

Meloidogyne incognita = Meloidogyne incognita test (MELGIN), gall formation on lettuce; conditions: application rate 20 ppm, after 14 days, sand, egg/larvae suspension
Procedure: Meloidogyne incognita Test (MELGIN)
Solvent: 125.0 parts by weight of acetone
To prepare a suitable active compound preparation, 1 part by weight of active compound is mixed with the stated amount of solvent and the concentrate is diluted with water to the desired concentration.
Vessels are filled with sand, active compound solution, an egg/larvae suspension of the root-knot nematode (Meloidogyne incognita) and lettuce seeds. The lettuce seeds germinate and the plants develop. On the roots, galls are formed.
After 14 days, the nematicidal effect in % is determined by the formation of galls. 100% means that no galls have been found; 0% means that the number of galls on the treated plants corresponds to the untreated control.

Cooperia curticei = Cooperia curticei test (COOPCU), larval kill; conditions: for effect (kill in %): after 5 days, about 40 nematode larvae; for inhibition at 20 ppm: Cooperia curticei, 120 h, COOPCU, 5 dat
Procedure: Cooperia curticei Test (COOPCU)
as §1, §2
Vessels containing the active compound preparation of the desired concentration are populated with about 40 nematode larvae (Cooperia curticei).
as §3

Structure (SMILES) | effect (kill in %) (Haemonchus contortus) | effect (kill in %) (Cooperia curticei; application rate 20 ppm) | further results
O=C(NCCOc1ncc(Cl)cc1Cl)c1c(F)cccc1F [1-19] | 90% | – | –
O=C(NCCOc1ncc(Cl)cc1Cl)c1ccccc1C(F)(F)F [1-20] | 100% | – | –
O=C(NCCOc1ncc(Cl)cc1Cl)c1ccccc1F [1-15] | 80% | – | –
O=C(NCCOc1ncc(C(F)(F)F)cc1Cl)c1ccccc1C(F)F [1-2] | 100% | – | –
O=C(NC1(COc2ncc(C(F)(F)F)cc2Cl)CC1)c1ccccc1[N+](=O)[O-] [1-195] | 80% | – | –
O=C(NCCOc1ncc(Cl)cc1Cl)c1ccccc1I [1-18] | 100% | – | nematicidal effect in % (formation of galls) (Meloidogyne incognita): 80%
O=C(NCCOc1ncc(C(F)(F)F)cc1Cl)c1cccnc1C(F)(F)F [1-63] | 90% | 80% | nematicidal effect in % (formation of galls) (Meloidogyne incognita): 90%
O=C(NC1(COc2ccc(C(F)(F)F)cn2)CC1)c1ccccc1C(F)(F)F [1-173] | 100% | 100% | –
O=C(NCCOc1ccc(Cl)cn1)c1ccccc1I [1-34] | 90% | – | –
O=C(NC1(COc2ncc(C(F)(F)F)cc2Cl)CC1)c1c(F)cccc1F [1-167] | 80% | – | –
O=C(NCCOc1ncc(C(F)(F)F)cc1Cl)c1ccccc1[N+](=O)[O-] [1-53] | 100% | – | –
O=C(NC1(COc2ccc(C(F)(F)F)cn2)CC1)c1c(F)cccc1F [1-168] | 90% | 100% | –
O=C(NCCOc1ccc(C(F)(F)F)cn1)c1ccccc1I [1-44] | 100% | – | –
O=C(NCCOc1ccc(C(F)(F)F)cn1)c1sccc1Cl [1-49] | – | – | nematicidal effect in % (formation of galls) (Meloidogyne incognita): 90%
CC(C)(COc1ncc(Cl)cc1Cl)NC(=O)c1ccccc1C(F)(F)F [1-82] | 90% | 90% | –
O=C(NCCOc1ncc(Cl)cc1Cl)c1sccc1Cl [1-23] | 80% | – | –
CC(COc1ncc(C(F)(F)F)cc1Cl)NC(=O)c1cn(C)nc1C(F)F (stereo not shown) [1.239, reference compound] | – | – | inhibition at 20 ppm (Haemonchus contortus): 0%; inhibition at 20 ppm (Cooperia curticei): 0%
N#Cc1cnc(OCCNC(=O)c2ccccc2C(F)(F)F)c(F)c1 [1-164] | 90% | 90% | nematicidal effect in % (formation of galls) (Meloidogyne incognita): 100%
O=C(NCCOc1ncc(C(F)(F)F)cc1Cl)c1ccccc1Br [1-27] | 100% | 90% | –
O=C(NCCOc1ncc(F)cc1F)c1ccccc1C(F)(F)F [1-134] | – | – | nematicidal effect in % (formation of galls) (Meloidogyne incognita): 90%
O=C(NCCOc1ncc(F)cc1F)c1ccccc1I [1-141] | – | – | nematicidal effect in % (formation of galls) (Meloidogyne incognita): 90%
O=C(NCCOc1ncc(C(F)(F)F)cc1Cl)c1c(F)cccc1F [1-52] | 90% | – | –
CC(COc1ncc(C(F)(F)F)cc1Cl)NC(=O)c1ccccc1C(F)(F)F (stereo not shown) [1-4] | 90% | 100% | inhibition at 20 ppm (Haemonchus contortus): 90%; inhibition at 20 ppm (Cooperia curticei): 100%
O=C(NCCOc1ccc(C(F)(F)F)cn1)c1ccccc1C(F)(F)F [1-46] | 100% | – | –
O=C(NC1(COc2ccc(C(F)(F)F)cn2)CC1)c1cccnc1Cl [1-177] | – | – | nematicidal effect in % (formation of galls) (Meloidogyne incognita): 90%

Structure (SMILES) | effect (kill in %) (Haemonchus contortus) | effect (kill in %) (Cooperia curticei; application rate 20 ppm) | further results
O=C(NCCOc1ncc(C(F)(F)F)cc1Cl)c1ccccc1C(F)(F)F [1-1] | 100% | 100% | –
O=C(NCCOc1ncc(C(F)(F)F)cc1Cl)c1ccccc1I [1-28] | 100% | 100% | –
O=C(NC1(COc2ncc(C(F)(F)F)cc2Cl)CC1)c1ccccc1I [1-170] | 100% | 100% | nematicidal effect in % (formation of galls) (Meloidogyne incognita): 100%
CC(CNC(=O)c1ccccc1C(F)(F)F)Oc1ncc(C(F)(F)F)cc1Cl (stereo not shown) [1-25] | 100% | 90% | –
O=C(NCCOc1ccc(C(F)(F)F)cn1)c1ccccc1Cl [1-42] | 80% | – | –
O=C(NCCOc1ccc(C(F)(F)F)cn1)c1sccc1I [1-48] | – | 80% | –
O=C(NC1(COc2ncc(C(F)(F)F)cc2Cl)CC1)c1ccccc1C(F)(F)F [1-169] | 80% | 80% | –
O=C(NC1(COc2ccc(C(F)(F)F)cn2)CC1)c1ccccc1[N+](=O)[O-] [1-196] | 90% | – | –
N#Cc1cnc(OCCNC(=O)c2c(F)cccc2F)c(F)c1 [1-189] | – | – | nematicidal effect in % (formation of galls) (Meloidogyne incognita): 90%
O=C(NCCOc1ncc(Cl)cc1Cl)c1sccc1I [1-22] | 100% | – | –
O=C(NCCOc1ccc(C(F)(F)F)cn1)c1cccnc1C(F)(F)F [1-57] | 80% | – | –
O=C(NCCOc1ccc(Cl)cn1)c1c(F)cccc1F [1-35] | 80% | – | effect (kill in %) (Cooperia curticei; application rate 100 ppm): 80%
Cc1ccccc1C(=O)NCCOc1ncc(C(F)(F)F)cc1Cl [1-29] | 80% | 80% | –
CC(COc1ccc(Cl)cc1Cl)NC(=O)c1ccccc1C(F)(F)F (stereo not shown) [4-2, reference compound] | – | – | inhibition at 20 ppm (Cooperia curticei): 0%
O=C(NCCOc1ccc(C(F)(F)F)cn1)c1c(F)cccc1F [1-45] | 90% | – | effect (kill in %) (Cooperia curticei; application rate 100 ppm): 80%
O=C(NCCOc1ccc(Cl)cn1)c1ccccc1Br [1-33] | 80% | – | –
O=C(NCCOc1ccc(C(F)(F)F)cn1)c1ccccc1Br [1-43] | 90% | – | –
O=C(NCCOc1ncc(C(F)(F)F)cc1Cl)c1ccccc1Cl [1-26] | 100% | 80% | –
O=C(NC1(COc2ccc(C(F)(F)F)cn2)CC1)c1ccccc1Br [1-176] | 90% | 90% | –
O=C(NCCOc1ncc(Cl)cc1Cl)c1ccccc1Cl [1-16] | 100% | – | –
O=C(NCCOc1ccc(Cl)cn1)c1ccccc1C(F)(F)F [1-36] | 80% | – | effect (kill in %) (Cooperia curticei; application rate 100 ppm): 90%
CC(C)(COc1ccc(C(F)(F)F)cn1)NC(=O)c1ccccc1C(F)(F)F [1-78] | 80% | 80% | –
O=C(NCCOc1ncc(F)cc1F)c1c(F)cccc1F [1-133] | – | – | nematicidal effect in % (formation of galls) (Meloidogyne incognita): 90%
COc1ncccc1C(=O)NCCOc1ncc(C(F)(F)F)cc1Cl [1-155] | 100% | 80% | –
